These are literature values, as cited in paper PMC7610473, “Axial functionalisation of photoactive diazido platinum(iv) anticancer complexes” (Inorganic chemistry frontiers, 2020).

On the set-up of the data set: method as in PMID 9399704.

For `O=C(O)c1cc2ccc(O)cc2oc1=O` [7-hydroxycoumarin-3 carboxylic acid], the pK a was 1.98.
